Results as given in patent US20230183245A1, “IMIDAZO-PYRIMIDONE COMPOUNDS AS PESTICIDES” (BASF SE, priority 2020, published 2023).
Like-named read-outs stand apart in the source and are kept apart here.

Key:
Assay type in all cases: in vivo
Anthonomus grandis = experiment: Boll weevil (Anthonomus grandis) microtiter diet test; conditions: 120 h, read-out: Egg and larval mortality in comparison with untreated controls
Method: (§1) If not otherwise specified, the test solutions are prepared as follows: The active compound is dissolved at the desired concentration in a mixture of 1:1 (vol:vol) distilled water: acteone. The test solution is prepared at the day of use. Test solutions are prepared in general at concentrations of 2500 ppm, 1415 ppm and 800 ppm (wt/vol).
(§2) For evaluating control of boll weevil (Anthonomus grandis) the test unit consisted of 96-well-microtiter plates containing an insect diet and 5-10 A. grandis eggs. The compounds were formulated using a solution containing 75% v/v water and 25% v/v DMSO. Different concentrations of formulated compounds were sprayed onto the insect diet at 5 µl, using a custom built micro atomizer, at two replications. After application, microtiter plates were incubated at about 25 ± 1° C. and about 75 ± 5% relative humidity for 5 days. Egg and larval mortality was then visually assessed.

Heliothis virescens = experiment: Tobacco budworm (Heliothis virescens) microtiter diet test; conditions: 120 h, read-out: Egg and larval mortality in comparison with untreated controls
Method: as §1
as §2, with “of tobacco budworm (Heliothis virescens)” for “of boll weevil (Anthonomus grandis)”, “and 15-25 H. virescens” for “and 5-10 A. grandis”, “at 10” for “at 5”, “about 28” for “about 25”, “about 80” for “about 75”

Myzus persicae = experiment: Green peach aphid (Myzus persicae) systemic artificial diet test; conditions: 72 h, read-out: Aphid mortality in comparison with untreated controls
Method: as §1
For evaluating control of green peach aphid (Myzus persicae) through systemic means the test unit consisted of 96-well-microtiter plates containing liquid artificial diet under an artificial membrane. The compounds were formulated using a solution containing 75% v/v water and 25% v/v DMSO. Different concentrations of formulated compounds were pipetted into the aphid diet, using a custom built pipetter, at two replications. After application, 5 - 8 adult aphids were placed on the artificial membrane inside the microtiter plate wells. The aphids were then allowed to suck on the treated aphid diet and incubated at about 23 ± 1° C. and about 50 ± 5 % relative humidity for 3 days. Aphid mortality and fecundity was then visually assessed.

[1] = system: Trialeurodes vaporariorum; experiment: Greenhouse whitefly (Trialeurodes vaporariorum) egg plant leaf disk test; conditions: foliar, 144 h, 6 days, read-out: Mortality of hatched crawlers in comparison with untreated controls
Method: as §1
For evaluating control of Greenhouse Whitefly (Trialeurodes vaporariorum) the test unit consisted of 96-well-microtiter plates containing a leaf disk of egg plant leaf disk with white fly eggs. The compounds or mixtures were formulated using a solution containing 75% water and 25% DMSO. Different concentrations of formulated were sprayed onto the insect diet at 2.5 µl, using a custom built micro atomizer, at two replications. After application, microtiter plates were incubated at 23 ± 1° C., 65 ± 5% RH for 6 days. Mortality of hatched crawlers was then visually assessed.

Nezara viridula = experiment: Green soldier stink bug (Nezara viridula) soybean pod spray test; conditions: 120 h, 5 days, late 3rd instar, read-out: Percent mortality in comparison with untreated controls
Method: as §1
The active compound is dissolved at the desired concentration in a mixture of 1:1 (vol:vol) distilled water: aceteone. Surfactant (Kinetic) is added at a rate of 0.01% (vol/vol).The test solution is prepared at the day of use. Soybean pods are placed in 90 × 50 mm glass Petri dishes lined with moistened filter paper and inoculated with ten late 3rd instar N. viridula. Using a hand atomizer, an approximately 2 ml solution is sprayed into each Petri dish. Treated set-up is kept at about 25-26° C. and relative humidity of about 65-70%. Percent mortality is recorded after 5 days.

Megoura viciae = experiment: Vetch aphid (Megoura viciae) broad bean leaf disk test; conditions: foliar, 120 h, 5 days, adult aphids on treated leaf disks, read-out: Aphid mortality in comparison with untreated controls
Method: as §1
For evaluating control of vetch aphid (Megoura viciae) through contact or systemic means the test unit consisted of 24-well-microtiter plates containing broad bean leaf disks.
The compounds were formulated using a solution containing 75% v/v water and 25% v/v DMSO. Different concentrations of formulated compounds were sprayed onto the leaf disks at 2.5 µl, using a custom built micro atomizer, at two replications. After application, the leaf disks were air-dried and 5 - 8 adult aphids placed on the leaf disks inside the microtiter plate wells. The aphids were then allowed to suck on the treated leaf disks and incubated at about 23 ± 1° C. and about 50 ± 5% relative humidity for 5 days. Aphid mortality and fecundity was then visually assessed.

Aedes aegypti = experiment: whole plant or invertebrate; conditions: 48 h, 2 days, freshly hatched larvae, read-out: Larval mortality in comparison with untreated controls
Method: as §1
For evaluating control of yellow fever mosquito (Aedes aegypti) the test unit consisted of 96-well-microtiter plates containing 200 µl of tap water per well and 5-15 freshly hatched A. aegypti larvae. The active compounds were formulated using a solution containing 75% (v/v) water and 25% (v/v) DMSO. Different concentrations of formulated compounds or mixtures were sprayed onto the […] at 2.5 µl, using a custom built micro atomizer, at two replications. After application, microtiter plates were incubated at 28 + 1° C., 80 + 5% RH for 2 days. Larval mortality was then visually assessed.

[2] = 800 ppm, 3 days, adult aphids on treated diet
[3] = 3 days, adult aphids on treated diet

CCS(=O)(=O)c1cc(/C=N/OC(C)C)cnc1-c1cn2c(=O)n(C3CC3)c(C(F)(F)F)cc2n1 [Compound C-15]
> 75%: mortality at 800 ppm (Anthonomus grandis; 800 ppm, 5 days) | mortality at 800 ppm (Heliothis virescens; 800 ppm, 5 days) | mortality at 800 ppm (Myzus persicae; [2]) | mortality at 800 ppm [1] | mortality at 800 ppm (Nezara viridula)

CCS(=O)(=O)c1cc(C(C)(C)C#N)cnc1-c1cn2c(=O)n(C3CC3)c(C(F)(F)F)cc2n1 [Compound C-4]
> 75%: mortality at 2500 ppm (Anthonomus grandis; 5 days) | mortality at 2500 ppm (Heliothis virescens; 5 days) | mortality at 800 ppm (Myzus persicae; [2]) | mortality at 2500 ppm (Myzus persicae; [3]) | mortality at 2500 ppm (Megoura viciae) | mortality at 800 ppm [1] | mortality at 2500 ppm [1] | mortality at 800 ppm (Aedes aegypti) | mortality at 800 ppm (Nezara viridula)

CCS(=O)(=O)c1cc(C(C)(C)C#N)cnc1-c1cn2c(=O)n(CC3CC3)c(C(F)(F)F)cc2n1 [Compound C-7]
> 75%: mortality at 800 ppm (Anthonomus grandis; 800 ppm, 5 days) | mortality at 800 ppm (Heliothis virescens; 800 ppm, 5 days) | mortality at 800 ppm (Myzus persicae; [2]) | mortality at 800 ppm (Aedes aegypti) | mortality at 800 ppm (Nezara viridula)

CCS(=O)(=O)c1cc(/C=N/OC)cnc1-c1cn2c(=O)n(C)c(C(F)(F)F)cc2n1 [Compound C-1]
> 75%: mortality at 2500 ppm (Anthonomus grandis; 5 days) | mortality at 2500 ppm (Heliothis virescens; 5 days) | mortality at 2500 ppm (Myzus persicae; [3]) | mortality at 2500 ppm (Megoura viciae) | mortality at 800 ppm (Aedes aegypti) | mortality at 800 ppm (Nezara viridula)

CCS(=O)(=O)c1cc(C2=NOC3(CCCC3)C2)cnc1-c1cn2c(=O)n(C3CC3)c(C(F)(F)F)cc2n1 [Compound C-13, 6-cyclopropyl-2-[3-ethylsulfonyl-5-(1-oxa-2-azaspiro[4.4]non-2-en-3-yl)-2-pyridyl]-7-(trifluoromethyl)imidazo[1,2-c]pyrimidin-5-one]
> 75%: mortality at 800 ppm (Anthonomus grandis) | mortality at 800 ppm (Heliothis virescens) | mortality at 800 ppm (Myzus persicae) | mortality at 800 ppm [1] | mortality at 800 ppm (Aedes aegypti)

CCS(=O)(=O)c1cc(/C(C#N)=N/O)cnc1-c1cn2c(=O)n(C3CC3)c(C(F)(F)F)cc2n1 [Compound C-8, (2Z)-2-[6-[6-cyclopropyl-5-oxo-7-(trifluoromethyl)imidazo[1,2-c]pyrimidin-2-yl]-5-ethylsulfonyl-3-pyridyl]-2-hydroxyimino-acetonitrile]
> 75%: mortality at 800 ppm (Myzus persicae; [2])

CCS(=O)(=O)c1cc(/C(C#N)=N/OCC(F)(F)F)cnc1-c1cn2c(=O)n(C3CC3)c(C(F)(F)F)cc2n1 [Compound C-10]
> 75%: mortality at 800 ppm (Anthonomus grandis; 800 ppm, 5 days) | mortality at 800 ppm (Heliothis virescens; 800 ppm, 5 days) | mortality at 800 ppm (Myzus persicae; [2]) | mortality at 800 ppm (Aedes aegypti) | mortality at 800 ppm (Nezara viridula)

CCS(=O)(=O)c1cc(/C(C#N)=N/OC)cnc1-c1cn2c(=O)n(C3CC3)c(C(F)(F)F)cc2n1 [Compound C-9]
> 75%: mortality at 800 ppm (Anthonomus grandis; 800 ppm, 5 days) | mortality at 800 ppm (Heliothis virescens; 800 ppm, 5 days) | mortality at 800 ppm (Myzus persicae; [2]) | mortality at 800 ppm (Aedes aegypti) | mortality at 800 ppm (Nezara viridula)

CCS(=O)(=O)c1cc(/C=N/O)cnc1-c1cn2c(=O)n(C3CC3)c(C(F)(F)F)cc2n1 [Compound C-23, (3E)-6-[6-cyclopropyl-5-oxo-7-(trifluoromethyl)imidazo[1,2-c]pyrimidin-2-yl]-5-ethylsulfonyl-pyridine-3-carbaldehyde oxime]
> 75%: mortality at 800 ppm (Myzus persicae; [2]) | mortality at 800 ppm (Nezara viridula)

CCS(=O)(=O)c1cc(/C(C#N)=N/OCC2CC2)cnc1-c1cn2c(=O)n(C3CC3)c(C(F)(F)F)cc2n1 [Compound C-11]
> 75%: mortality at 800 ppm (Anthonomus grandis; 800 ppm, 5 days) | mortality at 800 ppm (Heliothis virescens; 800 ppm, 5 days) | mortality at 800 ppm (Myzus persicae; [2]) | mortality at 800 ppm [1] | mortality at 800 ppm (Aedes aegypti) | mortality at 800 ppm (Nezara viridula)

CCO/N=C/c1cnc(-c2cn3c(=O)n(C4CC4)c(C(F)(F)F)cc3n2)c(S(=O)(=O)CC)c1 [Compound C-14]
> 75%: mortality at 800 ppm (Anthonomus grandis; 800 ppm, 5 days) | mortality at 800 ppm (Heliothis virescens; 800 ppm, 5 days) | mortality at 800 ppm (Myzus persicae; [2]) | mortality at 800 ppm (Aedes aegypti) | mortality at 800 ppm (Nezara viridula)

CCS(=O)(=O)c1cc(C(C)(C)C#N)cnc1-c1cn2c(=O)n(C)c(C(F)(F)F)cc2n1 [Compound C-5, 2-[5-ethylsulfonyl-6-[6-methyl-5-oxo-7-(trifluoromethyl)imidazo[1,2-c]pyrimidin-2-yl]-3-pyridyl]-2-methyl-propanenitrile]
> 75%: mortality at 2500 ppm (Anthonomus grandis; 5 days) | mortality at 2500 ppm (Heliothis virescens; 5 days) | mortality at 2500 ppm (Myzus persicae; [3]) | mortality at 2500 ppm [1] | mortality at 800 ppm (Nezara viridula)

CCS(=O)(=O)c1cc(/C=N/OCC(F)(F)F)cnc1-c1cn2c(=O)n(C)c(C(F)(F)F)cc2n1 [Compound C-3, 2-[3-ethylsulfonyl-5-[(E)-2,2,2-trifluoroethoxyiminomethyl]-2-pyridyl]-6-methyl-7-(trifluoromethyl)imidazo[1,2-c]pyrimidin-5-one]
> 75%: mortality at 2500 ppm (Anthonomus grandis; 5 days) | mortality at 2500 ppm (Heliothis virescens; 5 days) | mortality at 2500 ppm (Myzus persicae; [3]) | mortality at 2500 ppm (Megoura viciae) | mortality at 800 ppm (Aedes aegypti) | mortality at 800 ppm (Nezara viridula)

CCS(=O)(=O)c1cc(/C=N/O)cnc1-c1cn2c(=O)n(C)c(C(F)(F)F)cc2n1 [Compound C-2]
> 75%: mortality at 2500 ppm (Anthonomus grandis; 5 days) | mortality at 2500 ppm (Heliothis virescens; 5 days) | mortality at 2500 ppm (Myzus persicae; [3])

CCS(=O)(=O)c1cc(/C(C#N)=N/OCC#N)cnc1-c1cn2c(=O)n(C3CC3)c(C(F)(F)F)cc2n1 [Compound C-12]
> 75%: mortality at 800 ppm (Anthonomus grandis; 800 ppm, 5 days) | mortality at 800 ppm (Myzus persicae; [2]) | mortality at 800 ppm (Aedes aegypti)

CCS(=O)(=O)c1cc(C2(C#N)CC2)cnc1-c1cn2c(=O)n(C3CC3)c(C(F)(F)F)cc2n1 [Compound C-6, 1-[6-[6-cyclopropyl-5-oxo-7-(trifluoromethyl)imidazo[1,2-c]pyrimidin-2-yl]-5-ethylsulfonyl-3-pyridyl]cyclopropanecarbonitrile]
> 75%: mortality at 800 ppm (Anthonomus grandis; 800 ppm, 5 days) | mortality at 800 ppm (Heliothis virescens; 800 ppm, 5 days) | mortality at 800 ppm [1] | mortality at 800 ppm (Aedes aegypti) | mortality at 800 ppm (Nezara viridula)

CCS(=O)(=O)c1cc(/C=N/OCC(F)(F)F)cnc1-c1cn2c(=O)n(C3CC3)c(C(F)(F)F)cc2n1 [Compound C-16]
> 75%: mortality at 800 ppm (Anthonomus grandis; 800 ppm, 5 days) | mortality at 800 ppm (Heliothis virescens; 800 ppm, 5 days) | mortality at 800 ppm (Myzus persicae; [2]) | mortality at 800 ppm [1]
